Reference: patent publication US20160178613A1, “Electrical Cell-substrate Impedance Sensor (ECIS)” (priority 2015, published 2016)

Legend:
[1] = test system: tubulin assemblies of MCF-7 cells; assay: Confocal microscopy of tubulin assemblies of MCF-7 cells; format: cell-based, human; details: ABZ 2.1 nano-moles per liter, PTX 0.1 nano-moles per liter
Description: In addition, an un-treated control sample was prepared as reference for comparison. Then, samples were washed with PBS and permeabilized with microtubule stabilizing buffer [80 mM PIPES-KOH (pH 6.8), 5 mM EGTA, and 1 mM MgCl2 containing 0.5% Triton X-100] for 5 min at room temperature before being fixed with chilled absolute methanol for 10 min at −20° C. Thereafter, the fixed cells were washed and incubated with monoclonal mouse anti-α-tubulin antibody (Sigma Co.) for 1 hour at room temperature followed by incubation with FITC-conjugated antimouse IgG antibody (Santa Cruz Biotechnology). The stained cells were mounted with Vectashield (Vector Laboratories, Burlingame, Calif.) and observed by confocal microscopy.

MCF-7 cells = assay: SiNW-ECIS electrical impedance/capacitance response of MCF-7 cells treated with antitubulin drugs; format: cell-based, human; details: PTX 0.1 nano-moles per liter; for changes in membrane impedance vs control sample (normalized, mean) / variations in capacitance of the sensor vs control sample (normalized): MCF-7, 2 hours (T1) after drug incubation; for changes in membrane impedance vs control sample (normalized, mean) / variations in capacitance of the sensor vs control sample (normalized) / change in norm of impedance of treated cells, T1 vs T2 / changes in electrical impedance with respect to control sample / norm of capacitive changes, control sample more than drug value: ABZ 2.1 nano-moles per liter; for changes in electrical impedance with respect to control sample / norm of capacitive changes, control sample more than drug value: MCF-7, 6 hours (T2) after drug incubation
Description: In this example, the diagnostic response of cells membrane to extremely low dose of antitubulin drugs is investigated. Initially, MCF-7 cell lines, isolated from grade I human breast tumors, were obtained from the National Cell Bank of Iran (Pasteur Institute). Then, cells were maintained in a CO2 incubator (37° C., 5% CO2) in RPMI-1640 medium supplemented with 5% fetal bovine serum, and 1% penicillin/streptomycin. The fresh medium was replaced every other day. Then, the cultured cells were dropped on the surface of the SiNW-ECIS, designed and fabricated pursuant to teachings of the present application. Prior to each experiment, cells were trypsinized to be detached from the substrate and resuspended on the SiNW surface. To minimize the effect of trypsinization, the procedure may last for less than 4 minutes at room temperature of about 20° C. The samples were held in an incubator for about 4 hours to achieve cells attachment on the SiNWs. Thereafter, the ABZ drug with low concentrations of about 2.1 nano-moles per liter and the PTX drug with low concentrations of about 0.1 nano-moles per liter were added to individual samples. Finally, the signal recording and biological assays were investigated about 2 hours and 6 hours after the drug treatment (6 hours and 10 hours after the beginning of culturing process).
Referring to FIGS. 12A-12G, comparative normalized diagrams of impedance (designated by ΔZ % and represented by solid black lines) and capacitance changes (designated by ΔC % and represented by dashed grey lines) are illustrated for MCF-7 cells seeded on SiNW electrodes after treating by 2.1 nano-moles per liter of ABZ and 0.1 nano-moles per liter of PTX. The time interval between the drug incubation and the signal extraction are 2 hours (designated by T1) and 6 hours (designated by T2). In addition, the same diagrams are plotted for control sample prepared with no drug treatment stage.
According to the method described in the present example, the samples were maintained in an incubator so that the signal extraction was repeated 10 hours after cells dropping (6 hours after drug incubation for treated samples) to monitor the time evolution of drug induced MT polymerization/depolymerization on bioelectrical response of the membrane.

[2] = MCF-7, 2 hours vs 6 hours after drug incubation

Compound	spindle / microtubule morphology in confocal image ([1]; MCF-7, 2 hours after treatment)	spindle / microtubule morphology in confocal image ([1]; MCF-7, 6 hours after treatment)	changes in membrane impedance vs control sample (normalized, mean) (MCF-7 cells)	variations in capacitance of the sensor vs control sample (normalized) (MCF-7 cells)	change in norm of impedance of treated cells, T1 vs T2 (MCF-7 cells; [2])	time dependent variation in capacitive behavior, T1 vs T2 (MCF-7 cells; [2])	changes in electrical impedance with respect to control sample (MCF-7 cells)	norm of capacitive changes, control sample more than drug value (MCF-7 cells)
CC(=O)O[C@H]1C(=O)[C@@]2(C)[C@H]([C@H](OC(=O)c3ccccc3)[C@]3(O)C[C@H](OC(=O)[C@H](O)[C@@H](NC(=O)c4ccccc4)c4ccccc4)C(C)=C1C3(C)C)[C@]1(OC(C)=O)CO[C@@H]1C[C@@H]2O [PTX, Paclitaxel]	aggregated spindles	increased aggregation in MT spindles	about 50%	about 60%	15%	about 85%	about 30%	~75%
CCCSc1ccc2nc(NC(=O)OC)[nH]c2c1 [ABZ, Albendazole]	abnormally reduced numbers of spindles or monopolar (monoaster) spindles	still the monoastered MTs are observable	25%	70%	about 60%		about 90%	about 90%
